Test results reported in patent US8778932B2, “Dihydro-oxazolobenzodiazepinone compounds, a process for there preparation and pharmaceutical compositions containing them” (Les Laboratoires Servier, priority 2011, dated 2014).

Tests used:
[1] = target: HEK-293 cells stably expressing the subunit α5 of the human GABAA receptor, and also the subunits beta2 (short) and gamma2 (long) (Homo sapiens (Human), UniProt P18507+P31644+P47870); assay: GABAA receptor activity study (membrane potential, FMP marker, FlexStation3); assay type: cell-based; details: 40 min preincubation, then GABA, read-out: alpha5 IC50
Protocol: (§1) The compounds are tested on HEK-293 (Human Embryonic Kidney) cells stably expressing the subunit α5 of the human GABAA receptor, and also the subunits beta2 (short) and gamma2 (long). The cells are maintained in the presence of a selection of three antibiotics—neomycin, zeocin and puromycin—in a Dulbecco medium (DMEM) containing 10% (v/v) foetal bovine serum. On the day before the experiment, the cells are transferred to 96-well plates (in a density of 50,000 cells/well). The cells are then preincubated for 40 minutes with the compounds under test and are treated with GABA. The membrane potential is monitored using a blue FMP marker (Molecular Devices), following the instructions of the manufacturer. The responses are recorded for 120 seconds on a FlexStation3 plate reader (Molecular Devices, USA). The IC50 values of the tested compounds are determined by curve adjustment obtained by non-linear regression using SoftMax Pro software (Molecular Devices, USA).

[2] = target: HEK-293 cells stably expressing the subunit α5 of the human GABAA receptor, and also the subunits beta2 (short) and gamma2 (long) (Homo sapiens (Human), UniProt P31644); assay: as above; assay type: cell-based; details: 40 min preincubation, then GABA, read-out: alpha5 IC50
Protocol: as §1

[3] = test system: male NMRI mice; assay: Test for recognition of new objects, in the mouse; assay type: in vivo; details: i.p.
Protocol: This test measures non-spatial working memory in the rodent. It is based on the natural tendency of the animal to spend more time exploring a new object than a familiar object.
On Day 0 (familiarisation phase), male NMRI mice are placed in a black PVC box (32×45×27 cm) without an object, for 2.5 minutes. On the first day the mice are free to explore two identical objects for 3 minutes (acquisition phase). On the second day one of the objects is replaced by a new object and the duration of exploration is timed for each object over a period of 4 minutes (retention phase). Pretreatment with the compounds of the invention is carried out by the i.p. route on the day of the acquisition phase. The duration of exploration is measured by the TSE System software (TSE System GmbH, Bad Homburg, Germany),

[4] = test system: rats; assay: Radial maze test in the rat (ketamine-induced memory deficit); assay type: in vivo; details: dose-dependent from 0.3 to 3 mg/kg p.o., ketamine 10 mg/kg i.p., FIG. 4
From the text: This test is widely used to evaluate working and referential memory in the rodent. The apparatus consists of a small central octagonal platform from which there radiate eight different, equally spaced corridors. At the end of each corridor there is food, which is not visible from the central platform. In the experiment, all the corridors contain a reward and the animal has to visit each of the corridors just once. Each further visit is considered an error.
On the first day of the experiment the rats are deprived of food for 24 hours. Learning starts on the following day. The rats are placed on the central platform of the maze, each of the eight corridors having been provided with food. The animals are free to eat the food in the eight corridors. If a rat has not eaten all of the food within 20 minutes, it is withdrawn from the maze.
The experiments are continued once a day until the animals attain the determined objective, namely obtaining a total number of errors—that is to say, of any further visits to a corridor—of less than 3. These animals are included in the rest of the study. On the last day, the selected rats are treated p.o. with ketamine (10 mg/kg i.p.) co-administered either with a carrier or with a compound of the invention. The tests start 120 minutes after administration. Each test lasts a maximum of 5 minutes.

[5] = test system: male NMRI mice; assay: Occlusion of the middle cerebral artery (MCA) in the mouse; assay type: in vivo; details: doses of 1, 3 and 10 mg/kg i.p., 30 minutes after MCA occlusion, FIG. 5
Protocol: Permanent focal cerebral ischaemia is produced by electrocoagulation of the left MCA (according to the method of Welsh F A et al., J. Neurochem. 1987, 49, 846-851). Male NMRI mice are anaesthetised using 2,2,2-tribromoethanol (500 mg/kg i.p., 20 ml/kg). An incision is made in the left temporo-parietal region of the head between the orbit and the ear. The temporal muscle is then incised and folded back to expose the skull. A small trepanation hole is drilled in the outer lateral part of the skull just to the level of the MCA, and the trunk of the MCA is then occluded by electrocoagulation.
The compounds of the invention are administered by the i.p. route 30 minutes after occlusion of the MCA. Two days later, the animals are deeply anaesthetised using sodium pentobarbital (60 mg/kg i.p., 10 ml/kg) perfused through the heart with a 4% 2,3,5-triphenyltetrazolium chloride solution. The animals are finally decapitated, and the brains are extracted and placed for at least 24 hours in a saline solution containing 8% formaldehyde. Measurement of the necrosed surface area is determined using an image analysis system (DigiCell for Windows 4.0).

Sequence of HEK-293 cells stably expressing the subunit α5 of the human GABAA receptor, and also the subunits beta2 (short) and gamma2 (long) (Homo sapiens (Human), UniProt P18507+P31644+P47870) (P31644 32-462): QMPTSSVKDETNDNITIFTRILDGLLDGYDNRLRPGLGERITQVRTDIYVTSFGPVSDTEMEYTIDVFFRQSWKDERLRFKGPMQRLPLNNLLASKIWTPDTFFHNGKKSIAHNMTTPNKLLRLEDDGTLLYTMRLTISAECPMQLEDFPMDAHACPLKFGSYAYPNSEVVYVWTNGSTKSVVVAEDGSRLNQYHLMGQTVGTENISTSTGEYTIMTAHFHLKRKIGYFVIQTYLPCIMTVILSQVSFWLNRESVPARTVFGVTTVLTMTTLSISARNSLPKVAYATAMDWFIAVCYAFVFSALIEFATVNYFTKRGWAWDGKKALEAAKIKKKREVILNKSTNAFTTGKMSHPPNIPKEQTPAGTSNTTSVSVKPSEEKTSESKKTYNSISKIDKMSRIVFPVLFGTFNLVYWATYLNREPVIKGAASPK
Sequence of HEK-293 cells stably expressing the subunit α5 of the human GABAA receptor, and also the subunits beta2 (short) and gamma2 (long) (Homo sapiens (Human), UniProt P18507+P31644+P47870) (P47870 25-512 partner): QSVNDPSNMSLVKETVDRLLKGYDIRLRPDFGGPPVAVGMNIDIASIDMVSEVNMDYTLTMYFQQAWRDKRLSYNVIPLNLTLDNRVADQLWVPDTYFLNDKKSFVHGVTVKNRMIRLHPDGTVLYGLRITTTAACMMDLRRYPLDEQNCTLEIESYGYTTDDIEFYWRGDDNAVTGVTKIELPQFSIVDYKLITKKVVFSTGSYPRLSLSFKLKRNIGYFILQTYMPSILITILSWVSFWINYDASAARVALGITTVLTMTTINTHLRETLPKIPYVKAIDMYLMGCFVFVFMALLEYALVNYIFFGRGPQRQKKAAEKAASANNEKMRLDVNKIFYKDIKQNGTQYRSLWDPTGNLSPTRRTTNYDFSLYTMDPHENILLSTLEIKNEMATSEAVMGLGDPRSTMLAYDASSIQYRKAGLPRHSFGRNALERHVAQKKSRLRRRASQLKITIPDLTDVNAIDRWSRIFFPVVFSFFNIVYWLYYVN
Sequence of HEK-293 cells stably expressing the subunit α5 of the human GABAA receptor, and also the subunits beta2 (short) and gamma2 (long) (Homo sapiens (Human), UniProt P18507+P31644+P47870) (P18507 40-475 partner): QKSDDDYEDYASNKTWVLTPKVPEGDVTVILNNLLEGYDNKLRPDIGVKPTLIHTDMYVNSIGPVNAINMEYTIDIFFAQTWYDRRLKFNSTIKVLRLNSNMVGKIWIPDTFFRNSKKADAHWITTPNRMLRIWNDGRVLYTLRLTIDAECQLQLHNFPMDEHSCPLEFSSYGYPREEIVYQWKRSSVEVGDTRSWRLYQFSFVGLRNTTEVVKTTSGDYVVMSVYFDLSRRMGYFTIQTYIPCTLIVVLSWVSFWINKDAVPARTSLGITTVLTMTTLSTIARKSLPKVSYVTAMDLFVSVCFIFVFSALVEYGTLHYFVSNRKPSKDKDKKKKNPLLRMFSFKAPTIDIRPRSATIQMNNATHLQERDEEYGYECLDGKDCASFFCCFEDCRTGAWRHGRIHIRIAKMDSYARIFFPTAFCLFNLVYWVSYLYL
Sequence of HEK-293 cells stably expressing the subunit α5 of the human GABAA receptor, and also the subunits beta2 (short) and gamma2 (long) (Homo sapiens (Human), UniProt P31644) (P31644 32-462): as the sequence (P31644 32-462) above
Sequence of HEK-293 cells stably expressing the subunit α5 of the human GABAA receptor, and also the subunits beta2 (short) and gamma2 (long) (Homo sapiens (Human), UniProt P31644) (P47870 25-512 partner): as the sequence (P47870 25-512 partner) above
Sequence of HEK-293 cells stably expressing the subunit α5 of the human GABAA receptor, and also the subunits beta2 (short) and gamma2 (long) (Homo sapiens (Human), UniProt P31644) (P18507 40-475 partner): as the sequence (P18507 40-475 partner) above

SMILES | IC50 [1] | IC50 [2] | also measured
CC1=NN=C(c2ccc3ncccc3c2)c2cc3oc(=O)[nH]c3cc2C1 [Example 5, 8-methyl-5-(6-quinolyl)-1,9-dihydro-2H-[1,3]oxazolo[4,5-h][2,3]-benzodiazepin-2-one] | 430 nM |  | 
CC1=NN=C(c2cc3ccccc3s2)c2cc3oc(=O)[nH]c3cc2C1 [Example 6, 5-(1-benzothien-2-yl)-8-methyl-1,9-dihydro-2H-[1,3]oxazolo[4,5-h][2,3]benzodiazepin-2-one] |  | 130 nM | 
CC1=NN=C(c2sc3cccc(C(F)(F)F)c3c2Cl)c2cc3oc(=O)[nH]c3cc2C1 [Example 9, 5-[3-chloro-4-(trifluoromethyl)-1-benzothien-2-yl]-8-methyl-1,9-dihydro-2H-[1,3]oxazolo[4,5-h][2,3]benzodiazepin-2-one] |  | 250 nM | 
CC1=NN=C(c2cc3c(F)cccc3s2)c2cc3oc(=O)[nH]c3cc2C1 [Example 21, 5-(4-fluoro-1-benzothien-2-yl)-8-methyl-1,9-dihydro-2H-[1,3]oxazolo[4,5-h][2,3]benzodiazepin-2-one] |  | 200 nM | procognitive effect in the object recognition model ([3]; doses of 0.01, 0.03 and 0.1 mg/kg, FIG. 1): significant procognitive effect; reversal of ketamine-induced referential memory deficit [4]: significantly reverses the ketamine-induced referential memory deficit; inhibition of cerebral damage (necrosed surface area) [5]: significantly inhibits cerebral damage
CC1=NN=C(c2cc3c(C(F)(F)F)cccc3s2)c2cc3oc(=O)[nH]c3cc2C1 [Example 31, 8-methyl-5-[4-(trifluoromethyl)-1-benzothien-2-yl]-1,9-dihydro-2H-[1,3]oxazolo[4,5-h][2,3]benzodiazepin-2-one] |  | 500 nM | procognitive effect in the object recognition model ([3]; dose of 1 mg/kg, FIG. 2): significant procognitive effect
CC1=NN=C(c2cc3cc(Cl)ccc3s2)c2cc3oc(=O)[nH]c3cc2C1 [Example 32, 5-(5-chloro-1-benzothien-2-yl)-8-methyl-1,9-dihydro-2H-[1,3]-oxazolo[4,5-h][2,3]benzodiazepin-2-one] | 172 nM |  | 
CC1=NN=C(c2cc3ccc(F)cc3s2)c2cc3oc(=O)[nH]c3cc2C1 [Example 36, 5-(6-fluoro-1-benzothien-2-yl)-8-methyl-1,9-dihydro-2H-[1,3]oxazolo[4,5-h][2,3]benzodiazepin-2-one] |  | 100 nM | procognitive effect in the object recognition model ([3]; dose of 10 mg/kg, FIG. 3): significant precognitive effect
CC1=NN=C(c2cc3cccc(F)c3s2)c2cc3oc(=O)[nH]c3cc2C1 [Example 40, 5-(7-fluoro-1-benzothien-2-yl)-8-methyl-1,9-dihydro-2H-[1,3]-oxazolo[4,5-h][2,3]benzodiazepin-2-one] | 227 nM |  | 
